Test results reported in US20240076347A1, “METHODS FOR PREVENTING FUNGAL INFECTIONS” (Cidara Therapeutics, Inc., priority 2016, published 2024).
Read-outs that look alike come from different tables or passages of the source. Numbered stars: 1 amine (or outer) side, 2 acyl side, 3 side chain; on linkers, the order of the positions; unused ones are H or OH. Bridge positions count the residues as written; N and C are the ends. Square brackets hold non-standard residues; d marks the D form. Peptide text beside a SMILES is read from it. * marks the point of attachment. ξ: configuration not given here. Orn(4R-OH,5R-OCH2CH2NMe3+) = C[N+](C)(C)CCO[C@@H](N[*:3])[C@H](O)C[C@H](N[*:1])C(=O)[*:2]; pTerphenylCO(4''-OnC5H11) = CCCCCOc1ccc(-c2ccc(-c3ccc(C(=O)*)cc3)cc2)cc1; hTyr(3S-OH,4S-OH) = N[C@H](C(=O)O)[C@H](O)[C@@H](O)c1ccc(O)cc1; X1 = C[C@H]1CN([*:1])C(C(=O)[*:2])C1O; Hyp = O=C(O)[C@@H]1C[C@@H](O)CN1; ξT = CC(O)C(N)C(=O)O

What was measured:
[1] = test system: Candida albicans ATCC SC5314; test: Prophylaxis, neutropenic ICR mouse candidiasis model, kidney CFU; assay type: in vivo
Description: Candidiasis model: ICR mice (5/group) were rendered neutropenic by cyclophosphamide on Day −4 (150 mg/kg) and Day −1 (100 mg/kg), then challenged (Day 0) with Candida albicans ATCC SC5314 via IV (100 μL, […] CFU/mouse). Prior to challenge, mice were given one SC dose (5, 10, or 20 mg/kg) of CD101 on Day −5, Day −3, or Day −1. At 24 hours post-challenge, kidneys were removed for CFU enumeration.

[2] = test system: A. fumigatus (ATCC 13073); test: Disseminated infection of immune competent DBA/2 mice, prophylaxis, survival; assay type: in vivo, Aspergillus fumigatus
Description: (§1) A. fumigatus (ATCC 13073) growth was taken from 96 hour potato dextrose agar (PDA) and re-suspended in 0.1% Tween 20. The culture was resuspended in 1 mL cold PBS (>1.0×10^8 CFU/mL, OD620 2.3-2.8). The culture was then diluted in PBS to final cellular densities of 1.0×10^7 CFU/mL. The actual colony counts were determined by plating dilutions on PDA plates to confirm inoculation concentration. The actual inoculum count was 1.30×10^7 CFU/mL.
Groups of 6 immune competent female DBA/2 mice weighing 18±2 g were used. On Day 0, animals were inoculated (0.1 mL/mouse) by intravenous (IV) injection into the tail vein with A. fumigatus (ATCC 13073), 1.30×10^6 CFU per mouse. CD101 at 3, 10 and 30 mg/kg as prophylaxis was administered subcutaneously (SC) once starting 5, 3 or 1 day before inoculation. In addition, CD101 at 3 mg/kg SC and the reference, amphotericin B, at 3 mg/kg by intraperitoneal (IP) injection were administered one hour after infection (See Table 2).
(§2) A 50 percent or more (≥50%) increase in the survival rate compared to the vehicle control group indicates significant anti-infective activity. The health observations including body weight, hunched posture, ruffled fur, immobility and hypothermia were recorded daily for 14 days.

[3] = Monkey pharmacokinetics, SC and IV administration; assay type: in vivo, cynomolgus monkeys; details: for half-life / AUC(0-t) / Cmax / Tmax / AUC(0-inf): cynomolgus monkey, plasma
Description: Therefore, only local tolerability (and PK) of CD101 by SC administration required evaluation. […] Plasma concentrations were then quantified by liquid chromatography with tandem mass spectrometric detection (LC-MS/MS). Bioavailability from SC dosing was calculated by comparing the calculated area under the concentration-time profile (AUC) from SC against the AUC from IV administration of the same dose.

[4] = Plasma protein binding by ultracentrifugation; assay type: in vitro ADME; details: mouse plasma; read-out: percent of bound CD101, mean (protein binding) (converted)
Description: (§3) Concentrations in plasma ranging from 7 to 60 μg/mL were tested and resulting samples were analyzed by LC-MS/MS.

human plasma proteins = test: Plasma protein binding by ultracentrifugation; assay type: in vitro ADME
Description: as §3

C. glabrata = test: In vitro susceptibility testing (CLSI M27-A3); assay type: cell-based, Candida glabrata; details: Nakaseomyces glabratus, 24 h
Description: (§4) Strains. Ten clinical Candida strains were used for the in vivo treatment studies, including four C. albicans, three C. glabrata, and three C. parapsilosis strains (Table 18). This group was selected to encompass phenotypic variability in susceptibility to triazoles and echinocandins and based on similar fitness in the animal model as defined by the amount of growth in control animals over 24 h. The organisms were maintained, grown, and quantified on Sabouraud's dextrose agar (SDA) plates.
(§5) In vitro susceptibility testing. All isolates were tested in accordance with the standards in CLSI document M27-A3. The MICs were determined visually after 24 h of incubation as the lowest concentration of drug that causes a significant diminution (≥50%) of growth compared to controls. MICs were determined on three separate occasions in duplicate.

C. parapsilosis = test: In vitro susceptibility testing (CLSI M27-A3); assay type: cell-based, Candida parapsilosis; details: Lodderomyces parapsilosis, 24 h
Description: as §4, §5

[5] = test system: A. fumigatus (ATCC 13073); test: Disseminated infection of neutropenic ICR mice, prophylaxis, survival; assay type: in vivo, Aspergillus fumigatus
Description: as §1, with “Inoculum Preparation. A.” for “A.”, “hr” for “hour”, “2.0×10^5” for “1.0×10^7”, “1.85×10^5” for “1.30×10^7”
A. fumigatus (ATCC 13073) disseminated infection (IV). Groups of 6 female ICR mice weighing 22±2 g were used. Animals were immunosuppressed by three intraperitoneal (IP) injections of cyclophosphamide (the first at 6 mg/mouse 3 days before inoculation, the second and third at 2 mg/mouse on Day 1 then Day 4 after inoculation). On Day 0, animals were inoculated (0.1 mL/mouse) by intravenous (IV) injection into the tail vein with A. fumigatus (ATCC 13073), 1.85×10^4 CFU per mouse. CD101 at 5, 10 and 20 mg/kg as prophylaxis was administered subcutaneously (SC) once starting 5, 3 or 1 day before inoculation. […]
as §2, with “days. Animals found moribund were to be humanely sacrificed with CO2 asphyxiation in the study.” for “days.”

[6] = both sexes, sc, Subcutaneous, 30 mg/kg
[7] = female, animal 9707, F, 30 mg/kg SC single dose
[8] = male, animal 9697, M, 30 mg/kg SC single dose
[9] = 5, 10 and 20 mg/kg SC on Day −5, −3 and −1

With `CCCCCOc1ccc(-c2ccc(-c3ccc(C(=O)N[C@H]4C[C@@H](O)[C@@H](OCC[N+](C)(C)C)NC(=O)C5C(O)[C@@H](C)CN5C(=O)[C@H]([C@@H](C)O)NC(=O)[C@H]([C@H](O)[C@@H](O)c5ccc(O)cc5)NC(=O)[C@@H]5C[C@@H](O)CN5C(=O)C(C(C)O)NC4=O)cc3)cc2)cc1` (stereo partly drawn) [CD101] ({pTerphenylCO(4''-OnC5H11)}-[Orn(4R-OH,5R-OCH2CH2NMe3+)][ξT][Hyp][hTyr(3S-OH,4S-OH)]T[X1]; lactam 1-C) the “kidney CFU” value ([1]; 10 mg/kg SC single dose at Day −3 and Day −1, 24 h post-challenge, all animals) was “Complete clearance”, the “kidney CFU” value ([1]; 20 mg/kg SC on Day −3, all but one animal) was “Complete clearance” and the “kidney CFU” value ([1]; 20 mg/kg SC on Day −5, −3 or −1) was “reduced CFU burden regardless of prophylactic treatment day”. The “kidney CFU” value ([1]; 5 or 10 mg/kg SC at Day −3 and Day −1) was “significant decrease in CFU”, the 14-day survival ([2]; 3 mg/kg SC 1 hour after infection) was “significant increase in the 14-day survival” and the “symptoms of infection (body weight, hunched posture, ruffled fur, immobility, hypothermia)” value ([2]; 3, 10 and 30 mg/kg SC on Day −5, −3 and −1) was “improved”. The “increase in the 14-day survival compared to the vehicle group” value ([2]; SC: 3 mg/kg Day −1, 10 mg/kg Day −5, −3, −1, 30 mg/kg Day −5, −3, −1) was 50%, the “time at which maximum plasma concentration was reached” value ([3]; 30 mg/kg SC) was over 24 h and the “bioavailability (SC vs IV total exposure over 10 days)” value ([3]; 30 mg/kg SC vs IV) was 80%. For the same compound, the half-life ([3]; both sexes, sc, 30 mg/kg, Subcutaneous) was about 5.17 days, the AUC(0-t) [3, 6] was 2460 µg·h/mL and the Cmax [3, 6] was 13400 ng/mL. It also gave a Tmax [3, 6] of 72 h, an AUC(0-inf) ([3]; both sexes, sc, Subcutaneous, 30 mg/kg, read-out: AUCinf) of 3520 µg·h/mL and an AUC(0-t) ([3]; iv, 30 mg/kg) of 3140 µg·h/mL. The Cmax ([3]; iv, 30 mg/kg) was 112000 ng/mL, the Tmax ([3]; iv, 30 mg/kg) was 1 h and the half-life ([3]; iv, 30 mg/kg) was 2.07 days. The AUC(0-inf) ([3]; iv, 30 mg/kg, read-out: AUCinf) was 3340 µg·h/mL, the half-life ([3]; female, sc, 30 mg/kg, animal 9707, F, 30 mg/kg SC single dose) was 7.12 days and the AUC(0-t) [3, 7] was 2180 µg·h/mL. The Cmax [3, 7] was 10900 ng/mL, the Tmax [3, 7] was 48 h and the AUC(0-inf) ([3]; female, animal 9707, F, 30 mg/kg SC single dose, read-out: AUCINF_obs) was 3760 µg·h/mL. For the same compound, the half-life ([3]; male, sc, 30 mg/kg, animal 9697, M, 30 mg/kg SC single dose) was 3.18 days, the AUC(0-t) [3, 8] was 2740 µg·h/mL and the Cmax [3, 8] was 15900 ng/mL. It also gave a Tmax [3, 8] of 96 h, an AUC(0-inf) ([3]; male, animal 9697, M, 30 mg/kg SC single dose, read-out: AUCINF_obs) of 3280 µg·h/mL and a fraction unbound at 2.5 hr [4] of 0.008. For the same compound, the “percent of bound CD101, mean” value (human plasma proteins; human plasma, 7 to 60 μg/mL) was 97.4%, the “higher free fraction in human vs mouse plasma” value (human plasma proteins; human vs mouse plasma) was about 3 × and the MIC (C. glabrata; strain 5592) was 0.125 µg/mL. The MIC (C. glabrata; strain 10956 (FKS2_HS1_F659V)) was 1 µg/mL, the MIC (C. glabrata; strain 35315) was 0.5 µg/mL and the MIC (C. parapsilosis; strain 20423.072) was 0.5 µg/mL. For the same compound, the MIC (C. parapsilosis; strain 20477.048) was 1 µg/mL, the MIC (C. parapsilosis; strain 20519.069) was 1 µg/mL and the 14-day survival ([5]; 5 mg/kg SC 1 hr after infection) was “significant increase in the 14-day survival”. For the same compound, the “increase in the 14-day survival compared to the vehicle group” value [5, 9] was at least 50% and the “symptoms of infection (body weight, hunched posture, ruffled fur, immobility, hypothermia)” value [5, 9] was “improved”.
